16 compounds from US20230145835A1, “Modulators of Alpha-4-beta-7 Integrin and MAdCAM” (48HD Biopharma Inc., priority 2021, published 2023) can be followed below.

As usually defined, the IC50 is the concentration at which inhibition is half-maximal.

The test addresses T1, rh-integrin α4β7/LPAM-1 (Homo sapiens, UniProt P13612+P26010).
T1 sequence (P13612 34-977 limits assumed): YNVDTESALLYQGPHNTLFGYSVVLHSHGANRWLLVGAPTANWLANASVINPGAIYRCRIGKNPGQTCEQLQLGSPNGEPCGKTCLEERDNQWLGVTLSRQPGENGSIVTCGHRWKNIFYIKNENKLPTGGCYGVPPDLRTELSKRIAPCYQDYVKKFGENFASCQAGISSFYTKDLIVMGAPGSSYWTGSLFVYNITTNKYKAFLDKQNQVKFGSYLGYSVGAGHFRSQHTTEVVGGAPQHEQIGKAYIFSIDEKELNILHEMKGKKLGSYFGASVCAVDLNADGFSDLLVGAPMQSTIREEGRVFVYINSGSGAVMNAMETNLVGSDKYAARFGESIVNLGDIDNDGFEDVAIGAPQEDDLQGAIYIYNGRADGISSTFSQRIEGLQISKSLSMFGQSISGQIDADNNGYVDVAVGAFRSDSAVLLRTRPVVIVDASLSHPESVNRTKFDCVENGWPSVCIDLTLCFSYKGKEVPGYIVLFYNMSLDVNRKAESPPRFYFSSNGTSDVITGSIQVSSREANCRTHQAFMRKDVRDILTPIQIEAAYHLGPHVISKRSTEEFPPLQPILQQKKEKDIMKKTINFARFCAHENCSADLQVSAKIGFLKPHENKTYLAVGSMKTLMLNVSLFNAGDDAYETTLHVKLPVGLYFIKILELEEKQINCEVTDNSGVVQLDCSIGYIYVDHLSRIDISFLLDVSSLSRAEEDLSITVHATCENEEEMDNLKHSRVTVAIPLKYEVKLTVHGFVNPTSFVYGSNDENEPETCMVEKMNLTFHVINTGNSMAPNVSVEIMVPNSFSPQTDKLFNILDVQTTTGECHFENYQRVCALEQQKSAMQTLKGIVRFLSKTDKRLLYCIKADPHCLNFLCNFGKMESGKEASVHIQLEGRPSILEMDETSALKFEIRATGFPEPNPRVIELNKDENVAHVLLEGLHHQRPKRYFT
T1 sequence (P26010 20-723 limits assumed): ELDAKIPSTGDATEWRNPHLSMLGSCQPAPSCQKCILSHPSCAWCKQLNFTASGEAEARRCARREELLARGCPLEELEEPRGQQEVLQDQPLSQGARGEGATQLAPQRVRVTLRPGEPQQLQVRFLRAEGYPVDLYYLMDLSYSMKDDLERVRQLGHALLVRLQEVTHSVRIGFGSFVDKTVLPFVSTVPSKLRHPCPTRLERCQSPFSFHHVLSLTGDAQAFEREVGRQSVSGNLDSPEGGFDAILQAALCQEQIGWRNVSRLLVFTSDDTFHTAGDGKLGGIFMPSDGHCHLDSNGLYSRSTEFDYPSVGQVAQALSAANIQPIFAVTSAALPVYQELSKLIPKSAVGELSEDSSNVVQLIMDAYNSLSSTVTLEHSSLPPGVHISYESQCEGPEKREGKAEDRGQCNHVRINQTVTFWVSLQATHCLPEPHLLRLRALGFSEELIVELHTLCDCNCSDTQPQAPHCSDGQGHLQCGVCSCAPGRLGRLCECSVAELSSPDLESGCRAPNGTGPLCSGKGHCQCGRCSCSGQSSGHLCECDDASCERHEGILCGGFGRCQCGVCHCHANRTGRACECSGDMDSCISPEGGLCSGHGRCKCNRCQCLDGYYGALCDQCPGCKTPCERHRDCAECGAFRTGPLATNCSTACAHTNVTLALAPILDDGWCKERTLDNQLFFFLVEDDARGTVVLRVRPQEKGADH
The experiment in a line: α4β7-MadCAM Competition ELISA (Example 4). In kind it is binding. To be noted: read-out: IC50. As for the experimental part:
After washing with wash buffer, 200 μL assay buffer was added to each well and incubated for one hour at 28° C. After another wash with wash buffer, 100 μL of a MAdCAM and peptide mixture in assay buffer was added to each well and incubated for one hour at 28° C., followed by washing with wash buffer.
In general terms: An ELISA detects its analyte on a solid surface through an enzyme-linked reagent.

The mark [1] stands for this setting: competition ELISA, 4 μg/mL α4β7 coated, MAdCAM and peptide mixture, 28° C.
Where [2] appears, read: Table 3 Representative compounds, inhibition of MAdCAM binding to coated α4β7.

Where two headings read alike, the source gives them in different places. Numbered stars: 1 amine (or outer) side, 2 acyl side, 3 side chain; on linkers, the order of the positions; unused ones are H or OH. Bridge positions count the residues as written; N and C are the ends. Square brackets hold non-standard residues; d marks the D form. Peptide text beside a SMILES is read from it. I, II: the chains in the order shown. CO(CH2CH2O)5CH2CH2CO = O=C(CCOCCOCCOCCOCCOCCC(=O)[*:2])[*:1]; X3 = O=C(/C=N/OCCCCCCOc1cc(C[*:2])cc(C[*:3])c1)[*:1]; X1 = O=C(C=NOCCCCCCOc1cc(C[*:2])cc(C[*:3])c1)[*:1]; X5 = O=C(CCCCCCOc1cc(C[*:2])cc(C[*:3])c1)[*:1]; tBuAla = CC(C)(C)C[C@H](N)C(=O)O; Cba = N[C@@H](CC1CCC1)C(=O)O; Nle = CCCC[C@H](N)C(=O)O

For the compound `CC[C@H](C)[C@@H]1NC(=O)C=NOCCCCCCOc2cc3cc(c2)CSC[C@H](NC1=O)C(=O)N[C@@H](CCCNC(=N)N)C(=O)N[C@@H]([C@@H](C)O)C(=O)N[C@@H](CC(=O)O)C(=O)N[C@@H](C(C)C)C(=O)N1CCC[C@H]1C(=O)N[C@@H]([C@@H](C)CC)C(=O)N[C@@H](CC(=O)O)C(=O)N[C@H](C(=O)O)CSC3` [SEQ ID NO: 98] (ICRTDVPIDC-OH; linker N-2-10 via X1), the IC50 under setting [1] turned out to be 14400 nM. Regarding `CSCC[C@@H]1NC(=O)[C@@H]2CCCN2C(=O)[C@@H]2CSCc3cc(cc(c3)OCCCCCCON=CC(=O)N[C@@H](C)C(=O)N2)CSC[C@@H](C(=O)O)NC(=O)[C@H](CCC(=O)O)NC(=O)CNC(=O)[C@H](C)NC(=O)[C@H](C(C)C)NC(=O)[C@H](CC(=O)O)NC1=O` [SEQ ID NO: 101] (ACPMDVAGEC-OH; linker N-2-10 via X1), under setting [1], the IC50 came out at 5980 nM. As to `CC(C)(C)C[C@@H]1NC(=O)[C@H](CC(=O)O)NC(=O)[C@H](CC2CCC2)NC(=O)[C@@H]2CCCN2C(=O)[C@@H]2CSCc3cc(cc(c3)OCCCCCCON=CC(=O)N[C@@H](CCCNC(=N)N)C(=O)N2)CSC[C@@H](C(=O)O)NC(=O)[C@H](CCC(=O)O)NC(=O)[C@H](CCC(N)=O)NC(=O)[C@H](Cc2c[nH]c3ccccc23)NC1=O` [SEQ ID NO: 105] (RCP[Cba]D[tBuAla]WQEC-OH; linker N-2-10 via X1), the IC50 under setting [1] is 3890 nM.

`CC[C@H](C)[C@@H]1NC(=O)[C@H](CC(=O)O)NC(=O)[C@H](CCSC)NC(=O)[C@@H]2CCCN2C(=O)[C@@H](NC(=O)[C@H](CCCNC(=N)N)NC(=O)[C@H](CO)NC(C)=O)CSSC[C@@H](C(=O)N[C@@H](CCCCNC(=O)CCOCCOCCOCCOCCOCCC(=O)NCCCC[C@H](NC(=O)[C@@H]2CSSC[C@H](NC(=O)[C@H](CCCNC(=N)N)NC(=O)[C@H](CO)NC(C)=O)C(=O)N3CCC[C@H]3C(=O)N[C@@H](CCSC)C(=O)N[C@@H](CC(=O)O)C(=O)N[C@@H]([C@@H](C)CC)C(=O)N[C@@H](C)C(=O)NCC(=O)N[C@@H](CCC(=O)O)C(=O)N2)C(N)=O)C(N)=O)NC(=O)[C@H](CCC(=O)O)NC(=O)CNC(=O)[C@H](C)NC1=O` [SEQ ID NO: 109] (I: Ac-SRCPMDIAGECK-NH2 / II: Ac-SRCPMDIAGECK-NH2; disulfide I:3-I:11, II:3-II:11; linker I:12-II:12 via CO(CH2CH2O)5CH2CH2CO): under setting [1], the IC50 was 1730 nM. Take `CC[C@H](C)[C@@H]1NC(=O)[C@H](CC(=O)O)NC(=O)[C@H](CCSC)NC(=O)[C@@H]2CCCN2C(=O)[C@@H](NC(=O)[C@H](CCC(N)=O)NC(=O)[C@H](CO)NC(C)=O)CSSC[C@@H](C(=O)O)NC(=O)[C@H]([C@@H](C)O)NC(=O)[C@@H]2CCCN2C1=O` [SEQ ID NO: 111] (Ac-SQCPMDIPTC-OH; disulfide 3-10): the IC50 under setting [1] was 1700 nM. Same read-out and setting: with `CC(C)C[C@@H]1NC(=O)[C@@H]2CCCN2C(=O)[C@@H]2CSCc3cc(cc(c3)OCCCCCCON=CC(=O)N[C@@H](CCCCN)C(=O)N2)CSC[C@@H](C(=O)O)NC(=O)[C@H](CCC(=O)O)NC(=O)[C@H]([C@@H](C)O)NC(=O)[C@@H]2CCCN2C(=O)[C@H]([C@@H](C)O)NC(=O)[C@H](CC(=O)O)NC1=O` [SEQ ID NO: 121] (KCPLDTPTEC-OH; linker N-2-10 via X1) the figure was 748 nM. Turning to `CCCC[C@@H]1NC(=O)[C@@H]2CCCN2C(=O)[C@@H]2CSCc3cc(cc(c3)OCCCCCCC(=O)NCC(=O)N[C@@H](C)C(=O)N2)CSC[C@@H](C(=O)O)NC(=O)[C@H](CCC(=O)O)NC(=O)[C@H](CCC(N)=O)NC(=O)[C@H](Cc2c[nH]c3ccccc23)NC(=O)[C@H](C(C)C)NC(=O)[C@H](CC(=O)O)NC1=O` [SEQ ID NO: 122] (GACP[Nle]DVWQEC-OH; linker N-3-11 via X5; C-terminus assumed), under setting [1], the IC50 turned out to be 740 nM. Same read-out and setting: next, `CC(C)C[C@@H]1NC(=O)[C@@H]2CCCN2C(=O)[C@@H]2CSCc3cc(cc(c3)OCCCCCCON=CC(=O)N[C@@H](CCCCN)C(=O)N2)CSC[C@@H](C(=O)O)NC(=O)[C@H](CCC(=O)O)NC(=O)[C@H](Cc2ccc(O)cc2)NC(=O)[C@@H]2CCCN2C(=O)[C@H](CC(C)C)NC(=O)[C@H](CC(=O)O)NC1=O` [SEQ ID NO: 134] (KCPLDLPYEC-OH; linker N-2-10 via X1): 363 nM.

For the compound `CCCC[C@@H]1NC(=O)[C@@H]2CCCN2C(=O)[C@@H]2CSCc3cc(cc(c3)OCCCCCCON=CC(=O)N[C@@H](CCCNC(=N)N)C(=O)N2)CSC[C@@H](C(=O)O)NC(=O)[C@H](CCC(=O)O)NC(=O)CNC(=O)[C@H](C)NC(=O)[C@H](C(C)C)NC(=O)[C@H](CC(=O)O)NC1=O` [SEQ ID NO: 138] (RCP[Nle]DVAGEC-OH; linker N-2-10 via X1), under setting [1], the concentration for half-maximal inhibition (IC50) was found to be 261 nM. Regarding `CCCC[C@@H]1NC(=O)[C@@H]2CCCN2C(=O)[C@@H]2CSCc3cc(cc(c3)OCCCCCCC(=O)NCC(=O)N[C@@H](CCCNC(=N)N)C(=O)N2)CSC[C@@H](C(=O)O)NC(=O)[C@H](CCC(=O)O)NC(=O)[C@H](CCC(N)=O)NC(=O)[C@H](Cc2c[nH]c3ccccc23)NC(=O)[C@H]([C@@H](C)CC)NC(=O)[C@H](CC(=O)O)NC1=O` [SEQ ID NO: 147] (GRCP[Nle]DIWQEC-OH; linker N-3-11 via X5; C-terminus assumed), the IC50 under setting [1] was 75 nM. On the same count and under the same terms, next, `CC(C)C[C@@H]1NC(=O)[C@@H]2CCCN2C(=O)[C@@H](NC(=O)[C@H](CCCCN)NC(=O)[C@@H](N)CO)CSSC[C@@H](C(=O)O)NC(=O)[C@H](CCC(=O)O)NC(=O)[C@H](Cc2ccc(O)cc2)NC(=O)[C@@H]2CCCN2C(=O)[C@H]([C@@H](C)O)NC(=O)[C@H](CC(=O)O)NC1=O` [SEQ ID NO: 152] (H-SKCPLDTPYEC-OH; disulfide 3-11; N-terminus and C-terminus assumed): 552 nM. Regarding `CC(C)C[C@@H]1NC(=O)[C@H]([C@@H](C)O)NC(=O)[C@H](CC(=O)O)NC(=O)[C@H](CO)NC(=O)[C@H](CCCNC(=N)N)N(C)C(=O)c2ccccc2CSC(C)(C)[C@@H](C(=O)N[C@@H](Cc2c[nH]c3ccccc23)C(=O)N[C@H](CCC(=O)O)C(N)=O)NC1=O` [compound 1], the half-inhibitory concentration (IC50) under setting [2] came out at 3 nM. Consider `CC(C)C[C@@H]1NC(=O)[C@H]([C@@H](C)O)NC(=O)[C@H](CC(=O)O)NC(=O)[C@H](CO)NC(=O)[C@H](CCCNC(=N)N)N(C)C(=O)CCSC[C@@H](C(=O)N[C@@H](Cc2c[nH]c3ccccc23)C(=O)N[C@@H](CCCCN)C(N)=O)NC1=O` [compound 2], for which the IC50 under setting [2] came to 33 nM. Same read-out and setting: next, `CCCC[C@@H]1NC(=O)[C@@H]2CCCN2C(=O)[C@@H]2CSCc3cc(cc(c3)OCCCCCCO/N=C/C(=O)N[C@@H](CCCNC(=N)N)C(=O)N2)CSC[C@@H](C(N)=O)NC(=O)[C@H](CCC(=O)O)NC(=O)[C@H](CCC(N)=O)NC(=O)[C@H](Cc2c[nH]c3ccccc23)NC(=O)[C@H](C(C)C)NC(=O)[C@H](CC(=O)O)NC1=O` [compound 3] (RCP[Nle]DVWQEC-NH2; linker N-2-10 via X3): 53 nM. On the same count and under the same terms, with `CCCC[C@@H]1NC(=O)[C@@H]2CCCN2C(=O)[C@@H]2CSCc3cc(cc(c3)OCCCCCCC(=O)NCC(=O)N[C@@H](CCCNC(=N)N)C(=O)N2)CSC[C@@H](C(N)=O)NC(=O)[C@H](CCC(=O)O)NC(=O)[C@H](CCC(N)=O)NC(=O)[C@H](Cc2c[nH]c3ccccc23)NC(=O)[C@H]([C@@H](C)CC)NC(=O)[C@H](CC(=O)O)NC1=O` [compound 4] (GRCP[Nle]DIWQEC-NH2; linker N-3-11 via X5) the figure was 75 nM; with `CC(=O)N[C@H]1CSSC[C@@H](C(N)=O)NC(=O)[C@H](CC(C)C)NC(=O)[C@H]([C@@H](C)O)NC(=O)[C@H](CC(=O)O)NC(=O)[C@H](CO)NC(=O)[C@H](CCCNC(=N)N)NC1=O` [compound 5] (Ac-CRSDTLC-NH2; disulfide 1-7), 122 nM.
